# In patent US10167270B2, “Substituted quinazoline compounds and uses thereof for modulating glucocerebrosidase activity” (Northwestern University, priority 2015, dated 2019):
# Entries after “also recorded” stand apart in the source; their conditions may differ. Read-outs that look alike come from different tables or passages of the source.
# Experiments:
# [1] = molecular target: T1, N370S mutant GCase in patient fibroblasts (Homo sapiens (Human), UniProt P04062, N370S); assay: GCase protein level in N370S fibroblasts by Western blot; format: cell-based; details: 3 days treatment
# Experimental: (§1) The N370S fibroblast cell line was obtained from Coriell, GM00372, cultured in DMEM medium (Life Tech) including 1% v/v L-glutamine 200 mM (Life Tech), 1% v/v pen strep (Life Tech), 10% FBS (Life Tech) at 37° C. and 5% CO2 and treated with different compounds at 0.2 μM and 2 μM. After a 3-day treatment, cells were washed with inhibitor free media 3 times and fed with inhibitor free media for 1 day, followed by 1% Triton X-100 lysis buffer to lyse cells. Protein concentrations were measured with a Bradford kit (Thermo), and the GCase activity was determined at pH 5.5.
# Proteins were denatured in 20% SDS sample buffer at 100° C. for 10 min; 10% Bis-Tris gel (Life Tech) was used for gels; Trans-Blot Turbo PVDF kit (Bio-Rad) was used for membrane transfer, and Chemidoc MP system (Bio-Rad) was used to analyze the blots.
# α-galactosidase A (GLA) = α-galactosidase A (GLA) (Homo sapiens (Human), UniProt P06280); assay: Enzyme selectivity assay, α-galactosidase A; format: biochemical; details: up to 100 μM
# From the text: (§2) Louis, Mo.). The recombinant wild-type GCase enzyme velaglucerase alfa ([…] Human Genetic Therapies, Inc.), acid α-glucosidase enzyme alglucosidase alfa (Lumizyme®, Genzyme Corporation), α-galactosidase A enzyme agalsidase beta (Fabrazyme®, Genzyme Corporation) were used in activity assays. […] The acid α-glucosidase and α-galactosidase A enzyme activity assay methods were similar to the GCase enzyme activity assay above with slight modifications.
# wild-type GCase [2] = molecular target: T2, wild-type GCase (Homo sapiens (Human), UniProt P04062); assay: Fluorescence thermal shift analysis; format: binding; details: pH 5.0, in words
# From the text: Compounds shown to act as pharmacological chaperones for GCase (or other lysosomal enzymes) also stabilize the enzyme against thermal denaturation. A fluorescent thermal shift assay was developed to evaluate the binding affinity of ligands with protein^30. […] The maximum thermal shift of these compounds corresponded to their inhibitory activity at pH 5.0.
# A robotic pipeline in the High Throughput Analysis Laboratory (HTAL) was used for protein ligand screening by fluorescence thermal shift (FTS) analysis. The pipeline used a Mosquito robot (TTP Labtech) for protein dispensing and an Echo 550 (Labcyte) to add compounds. Thermal scanning coupled with fluorescence detection was performed on a real-time PCR machine CFX384 (Bio-Rad Laboratories). The assay was run in 384-well PCR plates, using 10 μL citric acid/K2HPO4 buffer (50 mM citric acid, 150 mM K2HPO4, pH 5.0) per well. The assay concentration for protein was 1 μM and that for Sypro Orange (Invitrogen) was 5×. Protein was premixed with Sypro Orange and dispensed to a plate first, and compounds were added. Final concentrations of compounds ranged from 0.5 to 200 μM. Then the plate was sealed with an optical seal, shaken, and centrifuged. The thermal scan was from 10 to 95° C. with a temperature ramp rate of 1.5° C./min. The fluorescence was recorded every 10 sec. Data analysis and report generation were performed using the in-house software excelFTS.
# wild-type GCase [3] = molecular target: T2, wild-type GCase; assay: GCase enzyme activity assay (4MU-β-Glc, no taurocholate); format: biochemical
# Experimental: In previous studies, high concentrations of taurocholate (4-10 mM) were used to improve the signal in GCase enzyme activity assays^16,27,28. […] Here we describe our modifications of the substituents on the quinazoline ring.
# 4-Methylumbelliferyl β-D-glucopyranoside (4MU-β-Glc), 4-methylumbelliferyl α-D-glucopyranoside,4-methylumbelliferyl α-D-galactopyranoside, and buffer components were purchased from Sigma-Aldrich (St. Louis, Mo.). The recombinant wild-type GCase enzyme velaglucerase alfa (Vpriv®, Shire Human Genetic Therapies, Inc.), acid α-glucosidase enzyme alglucosidase alfa (Lumizyme®, Genzyme Corporation), α-galactosidase A enzyme agalsidase beta (Fabrazyme®, Genzyme Corporation) were used in activity assays. […] A solution of 1 M sodium hydroxide and 1 M glycine (pH 10) was used as the stop solution for all three enzyme activity assays.
# The compounds in DMSO solution (0.5 μL/well) were transferred to a black 96-well plate (the final titration started from 100 μM, a 12 or 24-point 2-fold dilution series). […] After 5 min of incubation at room temperature, the enzyme reaction was initiated by the addition of blue substrate (4MU-13-Glc) (33 μL/well). The final concentration of the blue substrate was 1.5 mM. The blue substrate reaction was terminated by the addition of 33 μL/well stop solution (1 M NaOH and 1 M glycine mixture, pH 10) after 30 min of incubation at 37° C. […] The selected compounds were further assayed under pH 5.0 and pH 7.0 to evaluate their selectivity under various pH conditions.
# acid α-glucosidase (GAA) = acid α-glucosidase (GAA) (Homo sapiens (Human), UniProt P10253); assay: Enzyme selectivity assay, acid α-glucosidase; format: biochemical; details: up to 100 μM
# From the text: as §2
# GCase = GCase (Homo sapiens (Human), UniProt P04062); assay: Fluorescence polarization assay; format: binding
# Experimental: The fluorescent probe 3 (25 nL/well, 50 nM final concentration) was transferred to a 384-well black plate using a Labcyte Echo 550 Liquid Handler system. The 25 μL/well enzyme dilutions with GCase enzyme activity buffer were added to the plate, which was shaken at room temperature in dark for 20 min. The final titration was 5 nM to 10 μM, 10 concentrations, 2 times dilution. The fluorescence polarization was measured in Molecular Devices Analyst GT with Ex=535 nm and Em=580 nm, G Factor=1.05.
# [4] = molecular target: T1, N370S mutant GCase in patient fibroblasts; assay: GCase activity in N370S fibroblasts after compound treatment; format: cell-based; details: 3-day treatment
# Experimental: as §1
# [5] = pH 5.0, mean ± SD, read-out: IC50 pH 5.0
# [6] = pH 7.0, mean ± SD, read-out: IC50 pH 7.0
# [7] = Table 2, pH 5.9, mean ± SD, read-out: IC50
# [8] = Table 5, pH 5.9, mean ± SD, read-out: IC50
# [9] = Table 1, pH 5.9, mean ± SD, read-out: IC50
# T2 sequence (P04062 40-536): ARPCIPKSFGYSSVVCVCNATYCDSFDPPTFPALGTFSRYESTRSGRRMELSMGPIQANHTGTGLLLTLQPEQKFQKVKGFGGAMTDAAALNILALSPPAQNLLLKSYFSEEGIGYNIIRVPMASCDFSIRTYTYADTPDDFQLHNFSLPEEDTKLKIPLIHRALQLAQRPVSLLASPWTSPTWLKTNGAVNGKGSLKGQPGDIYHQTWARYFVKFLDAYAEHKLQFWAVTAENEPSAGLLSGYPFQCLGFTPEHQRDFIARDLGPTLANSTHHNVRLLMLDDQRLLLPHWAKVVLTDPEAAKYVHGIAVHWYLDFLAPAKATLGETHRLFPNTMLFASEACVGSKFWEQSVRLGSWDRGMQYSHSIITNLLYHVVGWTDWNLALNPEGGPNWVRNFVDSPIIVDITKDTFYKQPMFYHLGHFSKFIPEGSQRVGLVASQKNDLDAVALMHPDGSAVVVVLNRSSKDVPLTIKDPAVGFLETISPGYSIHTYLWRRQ
# GCase, sequence (P04062 40-536): as above
# α-galactosidase A (GLA), sequence (P06280 32-429): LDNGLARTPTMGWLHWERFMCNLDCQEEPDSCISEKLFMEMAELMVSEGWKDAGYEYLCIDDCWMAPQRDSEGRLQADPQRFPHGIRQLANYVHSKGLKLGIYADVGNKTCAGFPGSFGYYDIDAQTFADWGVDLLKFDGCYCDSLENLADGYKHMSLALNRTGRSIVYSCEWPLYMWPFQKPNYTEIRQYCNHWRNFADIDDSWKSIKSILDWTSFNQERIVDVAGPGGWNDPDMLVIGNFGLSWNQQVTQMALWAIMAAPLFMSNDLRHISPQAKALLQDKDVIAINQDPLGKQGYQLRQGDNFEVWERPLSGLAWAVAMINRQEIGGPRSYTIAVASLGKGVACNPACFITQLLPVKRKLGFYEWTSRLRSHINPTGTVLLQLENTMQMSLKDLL
# T1 sequence (P04062 40-536 N409S): as the sequence (P04062 40-536) above, with N370S counted along it
structure (smiles),measurement,setting,value
"c1csc(-c2nc(NC3Cc4ccccc4C3)c3ccccc3n2)c1 [Compound 11f, N-(2,3-dihydro-1H-inden-2-yl)-2-(thiophen-2-yl)quinazolin-4-amine]",concentration of GCase protein,[1],significantly increased the concentration of GCase
same,activity of α-galactosidase A on compound treatment,α-galactosidase A (GLA),not significantly changed
same,stabilization of GCase (melting point change),wild-type GCase [2],stabilize wild-type GCase in a dose-dependent manner; also recorded: increased the GCase melting point in a dose-dependent manner
same,IC50,wild-type GCase [3]; [5],13.9 ± 1.9 nM
same,decrease of inhibitory activity at pH 5.0 compared to pH 5.9,wild-type GCase [3]; pH 5.0 vs pH 5.9,only dropped slightly
same,IC50,"wild-type GCase [3]; pH 5.9, mean ± SD, read-out: IC50 pH 5.9",8.2 ± 1 nM
same,IC50,wild-type GCase [3]; [6],12.9 ± 2 nM
same,activity of acid α-glucosidase on compound treatment,acid α-glucosidase (GAA),not significantly changed
"c1cncc(-c2nc(NC3CCc4ccccc4C3)c3ccccc3n2)c1 (single isomer, unassigned) [Compound 9a]",activity of α-galactosidase A on compound treatment,α-galactosidase A (GLA),not significantly changed
same,stabilization of GCase (melting point change),wild-type GCase [2],stabilize wild-type GCase in a dose-dependent manner; also recorded: increased the GCase melting point in a dose-dependent manner
same,decrease of inhibitory activity at pH 5.0 compared to pH 5.9,wild-type GCase [3],3 fold
same,activity of acid α-glucosidase on compound treatment,acid α-glucosidase (GAA),not significantly changed
c1ccc(Nc2nc(-c3cccnc3)nc3ccccc23)cc1 [Compound 8a],stabilization of GCase (melting point change),wild-type GCase [2],did not change the melting points significantly
same,GCase inhibitory activity in words,wild-type GCase [3],lost activity
same,IC50,"wild-type GCase [3]; Table 3, pH 5.9, mean ± SD",inactive
CN(C)c1ccc2c(-c3ccc(C(=O)NCCOCCOCCOCCOCCC(=O)NCCCCCC(=O)Nc4ccc(-c5nc(NC6Cc7ccccc7C6)c6ccccc6n5)cc4)cc3C(=O)O)c3ccc(=[N+](C)C)cc-3oc2c1 [compound 160],Kd,GCase,7.1 nM
c1cncc(-c2nc(NC3CCCCCC3)c3ccccc3n2)c1 [Compound 7b],IC50,wild-type GCase [3]; [7],42 ± 3 nM
CN1CCC(Nc2nc(-c3cccnc3)nc3ccccc23)CC1 [Compound 6i],IC50,"wild-type GCase [3]; Table 1, pH 5.9, mean ± SD",Inactive
"Cc1ccc(-c2nc(NC3Cc4ccccc4C3)c3ccccc3n2)cn1 [Compound 11c, N-(2,3-dihydro-1H-inden-2-yl)-2-(6-methylpyridin-3-yl)quinazolin-4-amine]",IC50,wild-type GCase [3]; [8],29.4 ± 3.6 nM
"Cc1cncc(-c2nc(NC3Cc4ccccc4C3)c3ccccc3n2)c1 [Compound 11b, N-(2,3-dihydro-1H-inden-2-yl)-2-(5-methylpyridin-3-yl)quinazolin-4-amine]",IC50,wild-type GCase [3]; [8],12.5 ± 1.7 nM
"OC[C@H]1CNC[C@@H](O)[C@@H]1O [IFG, Isofagomine, reference compound]",concentration of GCase protein,[1],did not have an effect
same,stabilization of GCase (melting point change),wild-type GCase [2],stabilize wild-type GCase in a dose-dependent manner
same,GCase activity in patient cells,[4],had no effect
CCC1CCC(Nc2nc(-c3cccnc3)nc3ccccc23)CC1 (centres unmarked) [Compound 6b],IC50,wild-type GCase [3]; [9],126 ± 7 nM
CN(C)c1ccc2c(-c3ccc(C(=O)NCCCCCC(=O)Nc4ccc(-c5nc(NC6Cc7ccccc7C6)c6ccccc6n5)cc4)cc3C(=O)O)c3ccc(=[N+](C)C)cc-3oc2c1 [compound 158],Kd,GCase,79 nM
c1cncc(-c2nc(NC3CCCCCCC3)c3ccccc3n2)c1 [Compound 7a],IC50,wild-type GCase [3]; [7],27 ± 2 nM
c1cncc(-c2nc(NC34CC5CC(CC(C5)C3)C4)c3ccccc3n2)c1 [Compound 7f],IC50,wild-type GCase [3]; [7],926 ± 80 nM
FC1(F)CCC(Nc2nc(-c3cccnc3)nc3ccccc23)CC1 [Compound 6f],IC50,wild-type GCase [3]; [9],234 ± 17 nM
"c1coc(-c2nc(NC3Cc4ccccc4C3)c3ccccc3n2)c1 [Compound 11h, N-(2,3-dihydro-1H-inden-2-yl)-2-(furan-2-yl)quinazolin-4-amine]",IC50,wild-type GCase [3]; [8],21.1 ± 2.4 nM
CN(C)C1CCC(Nc2nc(-c3cccnc3)nc3ccccc23)CC1 (centres unmarked) [Compound 6g],IC50,"wild-type GCase [3]; Table 1, pH 5.9, mean ± SD",Inactive
CN(C)c1ccc2c(-c3ccc(C(=O)NCCOCCOCC(=O)Nc4ccc(-c5nc(NC6Cc7ccccc7C6)c6ccccc6n5)cc4)cc3C(=O)O)c3ccc(=[N+](C)C)cc-3oc2c1 [compound 159],Kd,GCase,126 nM
"CC1CCC(Nc2nc(-c3cccnc3)nc3ccccc23)CC1 (single isomer, unassigned) [Compound 6a]",IC50,wild-type GCase [3]; [9],56 ± 5 nM
CC(C)N1CCC(Nc2nc(-c3cccnc3)nc3ccccc23)CC1 [Compound 6j],IC50,wild-type GCase [3]; [9],33200 ± 9710 nM
c1cncc(-c2nc(N[C@@H]3CCc4ccccc4C3)c3ccccc3n2)c1 [Compound 9b],activity of α-galactosidase A on compound treatment,α-galactosidase A (GLA),not significantly changed
same,stabilization of GCase (melting point change),wild-type GCase [2],stabilize wild-type GCase in a dose-dependent manner; also recorded: increased the GCase melting point in a dose-dependent manner
same,decrease of inhibitory activity at pH 5.0 compared to pH 5.9,wild-type GCase [3],3 fold
same,activity of acid α-glucosidase on compound treatment,acid α-glucosidase (GAA),not significantly changed
"CC1CCC(Nc2nc(-c3cccnc3)nc3ccccc23)CC1 (single isomer, unassigned) [Compound 6c]",IC50,wild-type GCase [3]; [9],20 ± 2 nM
same,IC50,wild-type GCase [3]; read-out: IC50,20 nM
c1cncc(-c2nc(NCC3CCCCC3)c3ccccc3n2)c1 [Compound 7h],IC50,wild-type GCase [3]; [7],405 ± 40 nM
c1ccc(CCCNc2nc(-c3cccnc3)nc3ccccc23)cc1 [Compound 8d],IC50,"wild-type GCase [3]; Table 3, pH 5.9, mean ± SD, read-out: IC50",1530 ± 220 nM
c1cncc(-c2nc(NC3CC3)c3ccccc3n2)c1 [Compound 7e],IC50,wild-type GCase [3]; [7],28100 ± 3210 nM
c1cncc(-c2nc(NC3CCC3)c3ccccc3n2)c1 [Compound 7d],IC50,wild-type GCase [3]; [7],2840 ± 340 nM
"c1ccc(-c2nc(NC3Cc4ccccc4C3)c3ccccc3n2)cc1 [Compound 11d, N-(2,3-dihydro-1H-inden-2-yl)-2-phenylquinazolin-4-amine]",concentration of GCase protein,[1],significantly increased the concentration of GCase
same,activity of α-galactosidase A on compound treatment,α-galactosidase A (GLA),not significantly changed
same,stabilization of GCase (melting point change),wild-type GCase [2],stabilize wild-type GCase in a dose-dependent manner; also recorded: increased the GCase melting point in a dose-dependent manner
same,IC50,wild-type GCase [3]; [8],6.5 ± 0.7 nM
same,IC50,wild-type GCase [3]; [5],10.5 ± 1.5 nM
same,IC50,wild-type GCase [3]; [6],9.4 ± 1.4 nM
same,activity of acid α-glucosidase on compound treatment,acid α-glucosidase (GAA),not significantly changed
